Results reported in PubChem BioAssay (NCI).
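How tested: cells in 96-well plates exposed to compound for 48 hours at five concentrations. TGI: total growth inhibition.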

Experiments:
Assay in all cases: inhibition of tumour cell growth, NCI panel, 48 h
786-0 renal = tested on: 786-0 renal
A498 renal = tested on: A498 renal
A549 NSCLC = tested on: A549 NSCLC
CAKI-1 renal = tested on: CAKI-1 renal
CCRF-CEM leukemia = tested on: CCRF-CEM leukemia
COLO 205 colon = tested on: COLO 205 colon
DLD-1 colon = tested on: DLD-1 colon
DMS 114 small cell lung = tested on: DMS 114 small cell lung
DMS 273 small cell lung = tested on: DMS 273 small cell lung
HCC-2998 colon = tested on: HCC-2998 colon
HCT-116 colon = tested on: HCT-116 colon
HCT-15 colon = tested on: HCT-15 colon
HOP-62 NSCLC = tested on: HOP-62 NSCLC
HOP-92 NSCLC = tested on: HOP-92 NSCLC
HT29 colon = tested on: HT29 colon
IGROV1 ovarian = tested on: IGROV1 ovarian
K-562 leukemia = tested on: K-562 leukemia
KM12 colon = tested on: KM12 colon
KM20L2 colon = tested on: KM20L2 colon
LOX IMVI melanoma = tested on: LOX IMVI melanoma
LXFL 529 NSCLC = tested on: LXFL 529 NSCLC
M14 melanoma = tested on: M14 melanoma
MALME-3M melanoma = tested on: MALME-3M melanoma
MOLT-4 leukemia = tested on: MOLT-4 leukemia
NCI-H226 lung = tested on: NCI-H226 lung
NCI-H23 lung = tested on: NCI-H23 lung
NCI-H460 lung = tested on: NCI-H460 lung
NCI-H522 lung = tested on: NCI-H522 lung
OVCAR-3 ovarian = tested on: OVCAR-3 ovarian
OVCAR-4 ovarian = tested on: OVCAR-4 ovarian
OVCAR-5 ovarian = tested on: OVCAR-5 ovarian
OVCAR-8 ovarian = tested on: OVCAR-8 ovarian
RXF 393 renal = tested on: RXF 393 renal
SF-295 CNS = tested on: SF-295 CNS
SF-539 CNS = tested on: SF-539 CNS
SK-MEL-2 melanoma = tested on: SK-MEL-2 melanoma
SK-MEL-28 melanoma = tested on: SK-MEL-28 melanoma
SK-MEL-5 melanoma = tested on: SK-MEL-5 melanoma
SK-OV-3 ovarian = tested on: SK-OV-3 ovarian
SN12C renal = tested on: SN12C renal
SNB-75 CNS = tested on: SNB-75 CNS
SNB-78 CNS = tested on: SNB-78 CNS
SR leukemia = tested on: SR leukemia
SW-620 colon = tested on: SW-620 colon
TK-10 renal = tested on: TK-10 renal
U251 CNS = tested on: U251 CNS
UACC-257 melanoma = tested on: UACC-257 melanoma
UACC-62 melanoma = tested on: UACC-62 melanoma
UO-31 renal = tested on: UO-31 renal
XF 498 CNS = tested on: XF 498 CNS
EKVX NSCLC = tested on: EKVX NSCLC
HL-60(TB) leukemia = tested on: HL-60(TB) leukemia
M19-MEL melanoma = tested on: M19-MEL melanoma
RPMI-8226 leukemia = tested on: RPMI-8226 leukemia
SF-268 CNS = tested on: SF-268 CNS
SNB-19 CNS = tested on: SNB-19 CNS

CNCC(=O)Nc1ccc2c(c1)C(=O)c1ccc(NC(=O)CNC)cc1C2=O
TGI (786-0 renal): 15.7 µM
TGI (A498 renal): 28.5 µM
TGI (A549 NSCLC): 25.6 µM
TGI (CAKI-1 renal): 20 µM
TGI (CCRF-CEM leukemia): 11 µM
TGI (COLO 205 colon): 11 µM
TGI (DLD-1 colon): 29.9 µM
TGI (DMS 114 small cell lung): 7.12 µM
TGI (DMS 273 small cell lung): 10.7 µM
TGI (HCC-2998 colon): 14.6 µM
TGI (HCT-116 colon): 11.9 µM
TGI (HCT-15 colon): 23.2 µM
TGI (HOP-62 NSCLC): 9.98 µM
TGI (HOP-92 NSCLC): 7 µM
TGI (HT29 colon): 16.2 µM
TGI (IGROV1 ovarian): 38 µM
TGI (K-562 leukemia): 7.19 µM
TGI (KM12 colon): 10.4 µM
TGI (KM20L2 colon): 21.1 µM
TGI (LOX IMVI melanoma): 4.17 µM
TGI (LXFL 529 NSCLC): 12.3 µM
TGI (M14 melanoma): 11.8 µM
TGI (MALME-3M melanoma): 12.9 µM
TGI (MOLT-4 leukemia): 10.1 µM
TGI (NCI-H226 lung): 20.3 µM
TGI (NCI-H23 lung): 31.6 µM
TGI (NCI-H460 lung): 12.3 µM
TGI (NCI-H522 lung): 4.81 µM
TGI (OVCAR-3 ovarian): 11.1 µM
TGI (OVCAR-4 ovarian): 5.68 µM
TGI (OVCAR-5 ovarian): 34.8 µM
TGI (OVCAR-8 ovarian): 10.2 µM
TGI (RXF 393 renal): 20.3 µM
TGI (SF-295 CNS): 18.6 µM
TGI (SF-539 CNS): 11.2 µM
TGI (SK-MEL-2 melanoma): 11.7 µM
TGI (SK-MEL-28 melanoma): 10.1 µM
TGI (SK-MEL-5 melanoma): 17.9 µM
TGI (SK-OV-3 ovarian): 3.81 µM
TGI (SN12C renal): 11.9 µM
TGI (SNB-75 CNS): 27.1 µM
TGI (SNB-78 CNS): 10.7 µM
TGI (SR leukemia): 7.54 µM
TGI (SW-620 colon): 12.3 µM
TGI (TK-10 renal): 44.9 µM
TGI (U251 CNS): 10.4 µM
TGI (UACC-257 melanoma): 16.1 µM
TGI (UACC-62 melanoma): 22.2 µM
TGI (UO-31 renal): 25.7 µM
TGI (XF 498 CNS): 8.25 µM

O=C1OC(O)c2cc3c(cc21)OCO3 (configuration not stated)
TGI (786-0 renal): > 100 µM
TGI (A498 renal): > 100 µM
TGI (A549 NSCLC): > 100 µM
TGI (CAKI-1 renal): > 100 µM
TGI (CCRF-CEM leukemia): > 100 µM
TGI (COLO 205 colon): > 100 µM
TGI (DLD-1 colon): > 100 µM
TGI (DMS 114 small cell lung): > 100 µM
TGI (DMS 273 small cell lung): > 100 µM
TGI (EKVX NSCLC): > 100 µM
TGI (HCC-2998 colon): > 100 µM
TGI (HCT-116 colon): > 100 µM
TGI (HCT-15 colon): > 100 µM
TGI (HL-60(TB) leukemia): > 100 µM
TGI (HOP-62 NSCLC): > 100 µM
TGI (HOP-92 NSCLC): > 100 µM
TGI (HT29 colon): > 100 µM
TGI (IGROV1 ovarian): > 100 µM
TGI (K-562 leukemia): > 100 µM
TGI (KM12 colon): > 100 µM
TGI (LOX IMVI melanoma): > 100 µM
TGI (LXFL 529 NSCLC): > 100 µM
TGI (M14 melanoma): > 100 µM
TGI (M19-MEL melanoma): > 100 µM
TGI (MALME-3M melanoma): > 100 µM
TGI (MOLT-4 leukemia): > 100 µM
TGI (NCI-H23 lung): > 100 µM
TGI (NCI-H460 lung): > 100 µM
TGI (NCI-H522 lung): > 100 µM
TGI (OVCAR-3 ovarian): > 100 µM
TGI (OVCAR-4 ovarian): > 100 µM
TGI (OVCAR-8 ovarian): > 100 µM
TGI (RPMI-8226 leukemia): > 100 µM
TGI (RXF 393 renal): > 100 µM
TGI (SF-268 CNS): > 100 µM
TGI (SF-295 CNS): > 100 µM
TGI (SF-539 CNS): > 100 µM
TGI (SK-MEL-2 melanoma): > 100 µM
TGI (SK-MEL-28 melanoma): > 100 µM
TGI (SK-MEL-5 melanoma): > 100 µM
TGI (SK-OV-3 ovarian): > 100 µM
TGI (SN12C renal): > 100 µM
TGI (SNB-19 CNS): > 100 µM
TGI (SNB-75 CNS): > 100 µM
TGI (SNB-78 CNS): > 100 µM
TGI (SW-620 colon): > 100 µM
TGI (TK-10 renal): > 100 µM
TGI (U251 CNS): > 100 µM
TGI (UACC-257 melanoma): > 100 µM
TGI (UACC-62 melanoma): > 100 µM
TGI (UO-31 renal): > 100 µM
TGI (XF 498 CNS): > 100 µM
